In patent US20240190849A1, “AMINOPYRIMIDINE COMPOUNDS AND METHODS OF THEIR USE” (TYRA BIOSCIENCES, INC., priority 2021, published 2024):

Experiments:
[1] = biological target: T1, FGFR1 (Homo sapiens, UniProt P11362); assay: Kinase binding assay (kinase-tagged T7 phage, affinity beads, qPCR readout), FGFR1; conditions: FGFR binding data
T1 construct: made in house; host or cells: E. coli derived from BL21, infected with T7 phage
In short: (§1)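 Phage lysate kinase + liganded magnetic beads + compound, 11-pt 3-fold series, 0.9% DMSO; 1 h RT shaking. Wash, elute 30 min with 0.5 μM non-biotinylated ligand; qPCR readout. Hill fit, slope −1 → Kd.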

[2] = biological target: T2, FGFR2 (Homo sapiens, UniProt P21802); assay: Kinase binding assay (kinase-tagged T7 phage, affinity beads, qPCR readout), FGFR2; conditions: FGFR binding data
T2 construct: made in house; host or cells: E. coli derived from BL21, infected with T7 phage
T2 sequence (P21802 22-821): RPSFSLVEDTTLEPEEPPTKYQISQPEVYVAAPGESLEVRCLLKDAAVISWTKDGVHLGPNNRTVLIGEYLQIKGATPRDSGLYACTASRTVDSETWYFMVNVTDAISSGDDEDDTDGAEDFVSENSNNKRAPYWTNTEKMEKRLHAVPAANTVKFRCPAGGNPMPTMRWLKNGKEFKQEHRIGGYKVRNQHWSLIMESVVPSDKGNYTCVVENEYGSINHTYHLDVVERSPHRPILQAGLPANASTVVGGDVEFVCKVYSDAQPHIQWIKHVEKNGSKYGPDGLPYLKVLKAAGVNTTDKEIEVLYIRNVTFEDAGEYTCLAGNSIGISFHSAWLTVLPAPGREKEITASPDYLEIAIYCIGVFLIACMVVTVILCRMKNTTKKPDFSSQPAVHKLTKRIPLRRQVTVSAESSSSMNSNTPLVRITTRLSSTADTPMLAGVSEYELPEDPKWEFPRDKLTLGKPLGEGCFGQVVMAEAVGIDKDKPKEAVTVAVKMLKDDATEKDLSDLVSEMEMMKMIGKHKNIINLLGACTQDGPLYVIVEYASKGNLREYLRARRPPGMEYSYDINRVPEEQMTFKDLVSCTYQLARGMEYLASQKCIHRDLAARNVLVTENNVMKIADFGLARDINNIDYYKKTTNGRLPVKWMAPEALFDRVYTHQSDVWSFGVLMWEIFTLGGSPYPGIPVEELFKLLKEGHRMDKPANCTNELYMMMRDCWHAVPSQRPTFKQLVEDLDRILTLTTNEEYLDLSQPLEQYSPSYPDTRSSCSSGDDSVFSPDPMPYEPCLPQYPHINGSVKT
In short: as §1

[3] = biological target: T3, FGFR3 (Homo sapiens, UniProt P22607); assay: Kinase binding assay (kinase-tagged T7 phage, affinity beads, qPCR readout), FGFR3; conditions: FGFR binding data
T3 construct: made in house; host or cells: E. coli derived from BL21, infected with T7 phage
T3 sequence (P22607 23-806): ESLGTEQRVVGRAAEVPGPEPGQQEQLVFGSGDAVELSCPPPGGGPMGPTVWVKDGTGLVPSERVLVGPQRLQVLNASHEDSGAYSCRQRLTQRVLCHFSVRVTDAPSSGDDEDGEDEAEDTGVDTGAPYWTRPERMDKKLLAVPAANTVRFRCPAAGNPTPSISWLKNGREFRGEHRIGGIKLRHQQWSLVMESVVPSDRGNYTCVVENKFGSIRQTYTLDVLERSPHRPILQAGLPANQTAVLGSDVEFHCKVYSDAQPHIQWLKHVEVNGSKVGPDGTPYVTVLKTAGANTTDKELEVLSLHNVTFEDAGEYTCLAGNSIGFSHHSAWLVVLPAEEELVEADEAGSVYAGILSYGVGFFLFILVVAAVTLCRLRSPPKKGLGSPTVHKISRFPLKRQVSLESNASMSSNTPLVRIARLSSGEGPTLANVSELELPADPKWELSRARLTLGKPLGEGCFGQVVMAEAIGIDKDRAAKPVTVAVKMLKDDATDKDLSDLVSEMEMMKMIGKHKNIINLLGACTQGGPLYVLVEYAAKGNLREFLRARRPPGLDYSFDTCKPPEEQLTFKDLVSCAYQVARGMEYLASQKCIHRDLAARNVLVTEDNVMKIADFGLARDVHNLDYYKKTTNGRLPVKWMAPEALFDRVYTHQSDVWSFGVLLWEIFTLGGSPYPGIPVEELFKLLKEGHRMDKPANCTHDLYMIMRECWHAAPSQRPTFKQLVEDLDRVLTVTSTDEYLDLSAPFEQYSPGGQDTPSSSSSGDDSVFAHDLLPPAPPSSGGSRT
In short: as §1

[4] = biological target: T4, FGFR3 (V555M) (Homo sapiens, UniProt P22607, V555M); assay: Kinase binding assay (kinase-tagged T7 phage, affinity beads, qPCR readout), FGFR3 (V555M); conditions: FGFR binding data
T4 construct: made in house; host or cells: E. coli derived from BL21, infected with T7 phage
T4 sequence (P22607 23-806 V555M): as the sequence (P22607 23-806) above, with V533M counted along it
In short: as §1

[5] = test system: RT112/84 (Bladder Cancer), FGFR3-TACC3 fusion; assay: Cancer cell viability assay (Cell Titer-Glo), RT112/84; format: cell-based; conditions: Homo sapiens, RT112/84 cells, 72 hours
Source text: (§2) RT112/84, UM-UC-14, SNU-16 and KG-1 Cancer Cell Line Cell Viability Assays
(§3) To detect the change of intracellular ATP by Cell Titer-Glo@ and to evaluate the inhibitory effect of the compounds on cancer cell lines by determining the in vitro IC50 value of the compounds.
(§4) Cell Titer-Glo@ 2.0 Luminescent cell viability assay reagent was purchased from Promega (Madison, WI). RT112/84, SNU-16, and KG-1 cell lines were purchased from American Type Culture Collection (Manassas, VA). UM-UC-14 cell line was purchased from Sigma (St. Louis, MO). RT112/84, UM-UC-14, SNU-16, and KG-1 cells were cultured in RPMI1640 media supplemented with 10% fetal bovine serum. Cultures were maintained at 37° C. in a humidified atmosphere of 5% CO2 and 95% air.
(§5) Cell Viability Assay Procedure: Cells were plated in 96-well clear bottom/white plates (Corning #3903) at 10,000 cells/well in 100 μl of media, incubated overnight. The next day, test compound DMSO stock solutions were made at 10 mM and 2 μM final concentration. Compounds were then added to cells in a 9-dose, […] dilution series starting at 30 μM with an HP 300e Digital Dispenser (each dose was applied in triplicate). DMSO was backfilled to each well up to 301 nL total volume of test compound+DMSO, and a total of 301 nL DMSO was added to a control/no test compound well in triplicate. The cells in cell culture plates were incubated with the compounds at 37° C. and 5% CO2 for 72 hours. Then 50 μl of Cell Titer Glo 2.0 reagent was added to each well of the cell culture plates. The contents were covered from light and mixed on an orbital shaker at room temperature for 10 min. Luminescence was recorded by a Synergy H1 Microplate Reader (Biotek, Winooski, VT). Cells were assessed as a percentage of DMSO only treated control cells. Curves were plotted and IC50 values were calculated using the GraphPad Prism 8 program based on a sigmoidal dose-response equation (4 parameter).

[6] = test system: UM-UC-14 (Bladder Cancer), FGFR3(S249C); assay: Cancer cell viability assay (Cell Titer-Glo), UM-UC-14; format: cell-based; conditions: UMUC14, UM-UC-14 cells, 72 hours
Source text: as §2, §3, §4, §5

[7] = test system: SNU-16 (Gastric Carcinoma), FGFR2 amplification; assay: Cancer cell viability assay (Cell Titer-Glo), SNU-16; format: cell-based; conditions: Homo sapiens, SNU-16 cells, 72 hours, read-out: SNU16 FGFR2 (IC50 nM)
In short: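 Cells seeded at 10,000/well in RPMI1640 with 10% FBS, then exposed 72 h at 37° C. to a 9-point 10-fold dilution series from 30 μM, in triplicate. Viability read as ATP luminescence (CellTiter-Glo 2.0) as percent of DMSO control; IC50 from 4-parameter sigmoidal fit.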

T1 sequence (P11362 22-822): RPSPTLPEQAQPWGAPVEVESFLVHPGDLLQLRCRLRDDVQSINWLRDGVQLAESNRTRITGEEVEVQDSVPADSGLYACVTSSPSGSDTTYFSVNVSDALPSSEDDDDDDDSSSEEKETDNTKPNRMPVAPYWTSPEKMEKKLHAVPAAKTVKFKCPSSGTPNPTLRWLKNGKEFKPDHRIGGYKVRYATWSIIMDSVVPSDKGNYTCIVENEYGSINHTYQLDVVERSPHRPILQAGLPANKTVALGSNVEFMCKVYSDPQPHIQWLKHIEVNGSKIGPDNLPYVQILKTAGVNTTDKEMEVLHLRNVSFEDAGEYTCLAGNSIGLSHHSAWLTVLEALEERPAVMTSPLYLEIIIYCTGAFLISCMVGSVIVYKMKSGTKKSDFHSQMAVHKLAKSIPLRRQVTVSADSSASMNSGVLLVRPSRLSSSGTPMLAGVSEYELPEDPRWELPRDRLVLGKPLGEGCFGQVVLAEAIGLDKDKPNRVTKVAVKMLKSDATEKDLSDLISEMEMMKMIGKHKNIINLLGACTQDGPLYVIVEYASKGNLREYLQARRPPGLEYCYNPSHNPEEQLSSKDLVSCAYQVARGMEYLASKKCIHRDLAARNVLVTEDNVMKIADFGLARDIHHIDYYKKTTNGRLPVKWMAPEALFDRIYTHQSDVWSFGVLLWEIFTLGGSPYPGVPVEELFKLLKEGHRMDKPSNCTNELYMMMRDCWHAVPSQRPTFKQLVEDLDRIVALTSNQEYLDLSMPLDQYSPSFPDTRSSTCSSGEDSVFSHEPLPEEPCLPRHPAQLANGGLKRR

Row | Structure (SMILES) | Kd [1] [nM] | Kd [2] [nM] | Kd [3] [nM] | Kd [4] [nM] | IC50 [5] [nM] | IC50 [6] [nM] | IC50 [7] [nM]
1 | C=CC(=O)Nc1ccc2c(c1)c(C)cn2-c1nc(Nc2cn(C)cn2)ncc1C [Example 36, N-[3-methyl-1-[5-methyl-2-[(1-methylimidazol-4-yl)amino]pyrimidin-4-yl]indol-5-yl]prop-2-enamide] | 0.1 to 100 | 0.1 to 100 | 0.1 to 100 | 0.1 to 100 | 100 to 250 | 0.1 to 100 | 
2 | C=CC(=O)Nc1ccc2c(c1)c(C)cn2-c1nc(Nc2c(C)nn(C)c2C)ncc1Cl [Example 41, N-[1-[5-chloro-2-[(1,3,5-trimethylpyrazol-4-yl)amino]pyrimidin-4-yl]-3-methyl-indol-5-yl]prop-2-enamide] | 100 to 250 | 0.1 to 100 | 0.1 to 100 | 0.1 to 100 | 250 to 1000 |  | 
3 | C=CC(=O)Nc1ccc2c(c1)c(C)cn2-c1nc(Nc2ccc(CN3CCOCC3)c(F)c2)ncc1Cl [Example 68, N-[1-[5-chloro-2-[3-fluoro-4-(morpholinomethyl)anilino]pyrimidin-4-yl]-3-methyl-indol-5-yl]prop-2-enamide] | 0.1 to 100 | 0.1 to 100 | 0.1 to 100 | 0.1 to 100 | 0.1 to 100 | 0.1 to 100 | 
4 | C=CC(=O)Nc1ccc2c(c1)c(C)cn2-c1nc(Nc2ccnn2C)ncc1F [Example 69, N-[1-[5-fluoro-2-[(2-methylpyrazol-3-yl)amino]pyrimidin-4-yl]-3-methyl-indol-5-yl]prop-2-enamide] | 100 to 250 | 0.1 to 100 | 0.1 to 100 | 0.1 to 100 | 0.1 to 100 | 0.1 to 100 | 
5 | C=CC(=O)Nc1ccc2c(c1)c(C)cn2-c1nc(Nc2cn(C)nc2C#N)ncc1Cl [Example 70, N-[1-[5-chloro-2-[(3-cyano-1-methyl-pyrazol-4-yl)amino]pyrimidin-4-yl]-3-methyl-indol-5-yl]prop-2-enamide] | 100 to 250 | 0.1 to 100 | 0.1 to 100 | 0.1 to 100 | 250 to 1000 |  | 
6 | C=CC(=O)Nc1ccc2c(c1)c(C)cn2-c1nc(Nc2cccc(CN3CCOCC3)c2)ncc1Cl [Example 78, N-[1-[5-chloro-2-[3-(morpholinomethyl)anilino]pyrimidin-4-yl]-3-methyl-indol-5-yl]prop-2-enamide] | 0.1 to 100 | 0.1 to 100 | 0.1 to 100 | 0.1 to 100 | 0.1 to 100 |  | 0.1 to 100
7 | C=CC(=O)Nc1ccc2c(c1)c(C)cn2-c1nc(Nc2cnn(CCO)c2)ncc1C [Example 121, N-[1-[2-[[1-(2-hydroxyethyl)pyrazol-4-yl]amino]-5-methyl-pyrimidin-4-yl]-3-methyl-indol-5-yl]prop-2-enamide] | 0.1 to 100 | 0.1 to 100 | 0.1 to 100 | 0.1 to 100 | 0.1 to 100 | 0.1 to 100 | 0.1 to 100
8 | C=CC(=O)Nc1ccc2c(c1)c(CC)cn2-c1nc(Nc2cnn(C)c2)ncc1C [Example 136, N-[3-ethyl-1-[5-methyl-2-[(1-methylpyrazol-4-yl)amino]pyrimidin-4-yl]indol-5-yl]prop-2-enamide] | 0.1 to 100 | 0.1 to 100 | 0.1 to 100 | 0.1 to 100 | 0.1 to 100 | 0.1 to 100 | 0.1 to 100
9 | C=CC(=O)Nc1ccc2c(c1)c(C)cn2-c1nc(Nc2cnn(CCCO)c2)ncc1F [Example 160, N-[1-[5-fluoro-2-[[1-(3-hydroxypropyl)pyrazol-4-yl]amino]pyrimidin-4-yl]-3-methyl-indol-5-yl]prop-2-enamide] | 0.1 to 100 | 0.1 to 100 | 0.1 to 100 | 0.1 to 100 | 0.1 to 100 | 0.1 to 100 | 0.1 to 100
10 | C=CC(=O)Nc1ccc2c(c1)c(C)cn2-c1nc(Nc2cnn(CCOC)c2)ncc1F [Example 163, N-[1-[5-fluoro-2-[[1-(2-methoxyethyl)pyrazol-4-yl]amino]pyrimidin-4-yl]-3-methyl-indol-5-yl]prop-2-enamide] | 0.1 to 100 | 0.1 to 100 | 0.1 to 100 | 0.1 to 100 | 0.1 to 100 | 0.1 to 100 | 0.1 to 100
11 | C=CC(=O)Nc1ccc2c(c1)c(C)cn2-c1nc(Nc2cn(C)nc2C)ncc1F [Example 167, N-[1-[2-[(1,3-Dimethylpyrazol-4-yl)amino]-5-fluoro-pyrimidin-4-yl]-3-methyl-indol-5-yl]prop-2-enamide] | 0.1 to 100 | 0.1 to 100 | 0.1 to 100 | 0.1 to 100 | 0.1 to 100 | 0.1 to 100 | 0.1 to 100
12 | C=CC(=O)Nc1ccc2c(c1)c(C)cn2-c1nc(Nc2cnn(CC(C)(C)O)c2)ncc1F [Example 181, N-[1-[5-fluoro-2-[[1-(2-hydroxy-2-methyl-propyl)pyrazol-4-yl]amino]pyrimidin-4-yl]-3-methyl-indol-5-yl]prop-2-enamide] | 0.1 to 100 | 0.1 to 100 | 0.1 to 100 | 0.1 to 100 | 0.1 to 100 | 0.1 to 100 | 0.1 to 100
13 | C=CC(=O)Nc1ccc2c(c1)c(C)cn2-c1nc(Nc2cnn(C[C@@H](C)O)c2)ncc1F [Example 185, N-[1-[5-Fluoro-2-[[1-[(2R)-2-hydroxypropyl]pyrazol-4-yl]amino]pyrimidin-4-yl]-3-methyl-indol-5-yl]prop-2-enamide] | 0.1 to 100 | 0.1 to 100 | 0.1 to 100 | 0.1 to 100 | 0.1 to 100 |  | 0.1 to 100
14 | C=CC(=O)Nc1ccc2c(c1)c(C)cn2-c1nc(Nc2cnn(C[C@H](C)O)c2)ncc1F [Example 186, N-[1-[5-Fluoro-2-[[1-[(2S)-2-hydroxypropyl]pyrazol-4-yl]amino]pyrimidin-4-yl]-3-methyl-indol-5-yl]prop-2-enamide] | 0.1 to 100 | 0.1 to 100 | 0.1 to 100 | 0.1 to 100 | 0.1 to 100 |  | 0.1 to 100
15 | C=CC(=O)Nc1ccc2c(c1)c(C)cn2-c1nc(Nc2cn(C)nc2C)ncc1C [Example 187, N-[1-[2-[(1,3-dimethylpyrazol-4-yl)amino]-5-methyl-pyrimidin-4-yl]-3-methyl-indol-5-yl]prop-2-enamide] | 0.1 to 100 | 0.1 to 100 | 0.1 to 100 | 0.1 to 100 | 0.1 to 100 |  | 0.1 to 100
16 | C=CC(=O)Nc1ccc2c(-c3ccnc(Nc4cnn(C(F)F)c4)n3)cn(C)c2c1 [Example 188, N-[3-[2-[[1-(difluoromethyl)pyrazol-4-yl]amino]pyrimidin-4-yl]-1-methyl-indol-6-yl]prop-2-enamide] | 0.1 to 100 | 0.1 to 100 | 0.1 to 100 | 0.1 to 100 | 0.1 to 100 | 0.1 to 100 | 
17 | C=CC(=O)Nc1ccc2c(-c3ccnc(Nc4cnn(C5CCC5)c4)n3)cn(C)c2c1 [Example 189, N-[3-[2-[(1-cyclobutylpyrazol-4-yl)amino]pyrimidin-4-yl]-1-methyl-indol-6-yl]prop-2-enamide] | 0.1 to 100 | 0.1 to 100 | 0.1 to 100 | 0.1 to 100 | 0.1 to 100 | 0.1 to 100 | 
